This experiment relates to HDAC (HeLa nuclear extract, rich in HDAC activity). In words: HDAC AK-501 colorimetric (Color de Lys) inhibition assay with HeLa nuclear extract. In kind it is biochemical, human. As to conditions: Color de Lys substrate 0.2 mM final, 20 minutes at 37° C., reading at 405 nm, from straight line of 5 concentrations. The protocol: The inhibitory activity of the compounds obtained in the previous Examples 1, 2, 3 and 5 was evaluated, for which the HDAC AK-501 colorimetric titration kit for inhibition, supplied by Biomol, was used, following the indicated protocol.
The process of the assay was carried out in two steps. In the first step, the Color de Lys® substrate, containing an acetylated lysine group, was incubated with a sample of HeLa (human cervical cancer cell line) nuclear extract, rich in HDAC activity. In the second step, the previous mixture was treated with the Color de Lys® developer, which caused an increase in the quantifiable color intensity at 405 nm. There is a linear correlation between the absorption and the deacetylation of lysine within instrumental limits. The addition of an HDAC inhibitor gives rise to a lower deacetylation of the Color de Lys® substrate and to a decrease in the intensity at 405 nm.
The operating procedure was the following: • 1. The buffer, diluted (250 nM) TSA (Trichostatin A) and the inhibitor to be assayed were added at the desired concentrations in the suitable wells of the plate (See Table below). • 2. The Hela extract was added, except to the enzyme-free control. • 3. The plate and the Color de Lys® substrate were thermostatted at 37° C. • 4. The reactions were started adding the 0.4 mM substrate (final concentration of the substrate 0.2 mM) in each well and it was stirred. • 5. A reaction time of 20 minutes at 37° C. was allowed. • 6. The Color de Lys® developer, prepared approximately 30 minutes before its use, was added (the developer was used diluted 20 times with an amount of TSA resulting in a final concentration of 1 μM in the assay). It was allowed to react for 15 minutes at 37° C. • 7. The reading was made at 405 nm.
(×5) and (×2) indicate the dilution factors.
The result of the reading using 5 different concentrations taken between 0.1-2.0 mM of each inhibitor allowed obtaining a straight line of concentrations versus enzymatic activity. The concentration necessary to deduce the 50% enzymatic activity (IC50) was calculated from the equation of said line.

Molecules are shown by their SMILES.

Among the data in patent US20090312377A1, “DERIVATIVES OF BENZO[D]ISOTHIAZOLES AS HISTONES DEACETYLASE INHIBITORS” (UNIVERSIDAD DE GRANADA, priority 2006, published 2009) are IC50 values, retold here.

A word on the IC50: it is the concentration that gives 50% inhibition.

For the compound `O=C(CCCCCN1C(=O)c2ccccc2S1(=O)=O)NO` [Compound 1, 6-(1,1-dioxide-3-oxo-2H-benzo[d]isothiazol-2-yl)-N-hydroxyhexanamide], the IC50 came out at 1500 nM.
For `O=C(CCCCCCN1C(=O)c2ccccc2S1(=O)=O)NO` [Compound 2, 7-(1,1-dioxide-3-oxo-2H-benzo[d]isothiazol-2-yl)-N-hydroxyheptanamide] the value was 250 nM; for `O=C(NO)c1ccc(CN2C(=O)c3ccccc3S2(=O)=O)cc1` [Compound 3, 4-[(1,1-dioxide-3-oxo-2H-benzo[d]isothiazol-2-yl)methyl]-N-hydroxybenzamide], 1150 nM; for `O=C(CCCCCOc1nsc2ccccc12)NO` [Compound 5, 6-[(benzo[d]isothiazol-3-yl)oxa]-N-hydroxyhexanamide], 210 nM.
